These results are taken from patent US5972914A, “Remedies for liver diseases” (Meiji Milk Products Co., Ltd., priority 1998, dated 1999).

Where a name gives a salt, the structure may show the parent alone.

The test system of one series is mice. Kind of series: Acute toxicity test. Type of series: in vivo, mice (ICR). To be noted: i.p. The protocol: The pH was adjusted to 7.0 by use of 5 N NaOH. Solutions having lower concentrations were prepared by dilution with physiological saline. Each solution (10 μl) was intraperitoneally injected to mice (ICR, female, 6-weeks old, 29 g), and the survival ratio was obtained.

The subject of series [1] is hepatic cirrhosis induced by N-nitrosodiethylamine, clear cell foci. Description: Effect on hepatic cirrhosis (2): formation of clear cell foci. As to conditions: N-nitrosodiethylamine 100 mg/kg i.p., days 0, 7, 14, 21, 28.
Series [2] concerns hepatic cirrhosis induced by N-nitrosodiethylamine, nodules on liver surface. Kind of series: Effect on hepatic cirrhosis (2): nodule formation on the liver surface. Type of series: in vivo, Sprague-Dawley rats. The protocol: (§1) Groups Sprague-Dawley male rats (7 weeks old; Nippon SLC) were purchased and kept for five days before being used in the test. Each group consisted of 10 rats, and four groups were used in the test.
(§2) An N-nitrosodiethylamine solution (5.32 ml; which corresponds to 5 g due to the specific gravity of 0.94) was measured into a measuring cylinder by use of a glass pipette, and physiological saline was added to make the total volume 100 ml. Subsequently, the solution was sonicated for 2 minutes to prepare a uniform N-nitrosodiethylamine solution (50 mg/ml). The solution was prepared just before use. N-nitrosodiethylamine was intraperitoneally administered to each rat at a dose of 100 mg/2 ml/kg once in the morning on days 0, 7, 14, 21, and 28 (day 0: the first day of administration of N-nitrosodiethylamine).
An ethanolamine hydrochloric acid salt was measured and dissolved in a certain amount of distilled water for injection use. The solution was suitably diluted and administered to each rat by oral route by use of an oral probe for rats.
The liver was visually observed, and then a portion thereof was fixed with 10% neutral formalin buffer. Portions of fixed samples were frozen and stored at -80° C. in a tightly-sealed container.
The formation of nodules was evaluated by five rankings.

Series [3] has as its system hydroxyproline, fibrosis of the liver. Kind of series: Effect on hepatic cirrhosis (2): hydroxyproline in liver as index of fibrosis. It is filed as in vivo, Sprague-Dawley rats. The protocol: as §1, §2
An ethanolamine hydrochloric acid salt was measured and dissolved in a certain amount of distilled water for injection use. […]
The frozen liver tissue (1 g) was weighed and homogenized in a Teflon homogenizer together with pure water (3 ml). […] As an index of fibrosis, the amount of hydroxyproline was used, and the hydroxyproline content per g of liver tissue was calculated for comparison.
(3) The amount of hydroxyproline, serving as an index of fibrosis of the liver, was determined by an amino acid analysis.

The next series has as its system serum transaminase GOT. Description: Serum GOT in mice with liver disorder induced by carbon tetrachloride. It is filed as in vivo, ddY mice. The protocol: (§3) Carbon tetrachloride (5 ml, Wako Pure Chemicals) was put in a glass vial, and Panasate 800 (45 ml, Nippon Yushi Chemicals Co, Ltd.) was added to prepare a 10% (v/v) solution.
(§4) Subsequently, the total amount was made to 50 ml. An aliquot of 2 ml was diluted in 38 ml of physiological saline.
(§5) One group consisted of 10 mice. For 24 hours prior to the administration of tetrachloride, each mouse was fasted by being fed water only. 10% carbon tetrachloride/Panasate solution was intraperitoneally administered to each mice at a dose of 1 ml/kg.
(§6) Blood was collected from the abdominal aorta by use of 1-ml disposable syringes (Terumo). The blood, dispensed into 1.5 ml Eppendorf tubes, was subjected to centrifugal separation at 5,000 rpm for 10 minutes to thereby obtain serum. The activity of transaminase (GOT, GPT) in the serum thus obtained was measured. The measurement was performed by use of a Cobas Mira System (Baxter).

Another series has as its system serum transaminase GPT. Description: Serum GPT in mice with liver disorder induced by carbon tetrachloride. It is filed as in vivo, ddY mice. As to the method:
as §3, §4, §5, §6

A further series deals with rat hepatocyte. Description: 3H-TdR uptake by rat hepatocytes in primary culture (hepatocyte growth promoting activity). As to conditions: in the presence of either the high molecular weight factor extract or EGF.
The next series concerns liver necrosis. Description: Histopathological profile of liver in mice with carbon tetrachloride liver disorder. It is filed as in vivo, ddY mice. As to conditions: ethanolamine administration. The protocol: as §3, §4, §5
The subject of series [4] is hepatocytes, tubular epithelial cells, dermal keratinocytes and melanocytes, type II epithelial cells of pulmonary alveolus, epithelial cells of gastric mucosa. To be noted: cited from earlier work.
The subject of another series is cancer cells. As to conditions: cited from earlier work.
Where [5] appears, read: N-nitrosodiethylamine 100 mg/kg i.p., days 0, 7, 14, 21, 28.

Description for rat hepatocyte: In separation and identification of the low molecular weight factor showing hepatocyte proliferation promoting activity derived from epithelial mucosa of the bovine small intestine, the rat hepatocyte system in primary culture was used. To this culture system, a fraction of a crude extract of bovine small intestine epithelial mucosa in the course of purification was added in the presence of high molecular weight factor extract (1%) and insulin (10 μg/ml) or in the presence of EGF (20 ng/ml) and insulin (10 μg/ml), to thereby establish an assay system for measuring the uptake of ^3 H-TdR into DNA of rat hepatocyte nuclei.
Fractions each amounting 15 ml was added to the above-mentioned assay system and the uptake of ^3 H-TdR was measured.

For the molecule `NCCO` [EA-HCl, monoethanolamine-HCl], the “Survival, 1 day after admin.” value with mice (0.5 g/kg (calculated as EA)) is 4/4; in the series with mice (1.25 g/kg (calculated as EA)), 3/3. Also, the “Survival, 6 days after admin.” value is listed as 4/4 with mice (0.5 g/kg (calculated as EA)) and 3/3 with mice (1.25 g/kg (calculated as EA)). Moreover, the “Survival, administration (day)” value with mice (0.5 g/kg (calculated as EA)) was 4/4; with mice (1.25 g/kg (calculated as EA)), 3/3; with mice (2.5 g/kg (calculated as EA)), 0/4; in the series with mice (5.0 g/kg (calculated as EA)), 0/4. This molecule also yielded a time to death in the series with mice (5.0 and 2.5 g/kg) of no more than 30 min. Further, in the series with mice (doses equal to or less than 1.25 g/kg), the “survival at six days” value is “alive when six days had passed”.
On to `CCN(CC)N=O` [N-nitrosodiethylamine, reference compound], for which the “formation of clear cell foci” value in [1] is on record as “considerable formation of clear cell foci”. Also, the “nodules in the surface of the liver” value in series [2] (setting [5]) was “presented clear nodules in the surface of the liver”. Moreover, the hydroxyproline level result in series [3] (setting [5]) is “significantly elevated”.
For the molecule `NCCO` [ethanolamine, monoethanolamine], the GOT level result is listed as “significantly decreased” with serum transaminase GOT (intraperitoneal, 2.8 mg/kg) and “significantly decreased” with serum transaminase GOT (peroral, 16 mg/kg). In addition, the GPT level result is reported as “significantly decreased” in the series with serum transaminase GPT (intraperitoneal, 2.8 mg/kg) and “significantly decreased” with serum transaminase GPT (peroral, 16 mg/kg). Also, the “3H-TdR uptake, growth-stimulating effect” value in the series on rat hepatocyte is on record as “synergistic growth-stimulating effects”. In addition, the “formation of nodules, difference vs N-nitrosodiethylamine group” value in series [2] (15 mg/kg and 50 mg/kg, Dunnett's test) is “statistically significant”. For the same molecule, the “prevention of hepatic cirrhosis induced by N-nitrosodiethylamine” value in series [2] (oral administration) was “can be prevented by oral administration of ethanolamine”. Moreover, the “formation of nodules, dose dependence” value in series [2] (oral, 15 and 50 mg/kg, visual observation) is listed as “the higher the dose of ethanolamine, the less significant the formation of nodules”. Moreover, the “amount of hydroxyproline, dose dependence” value in series [3] (oral, 15 and 50 mg/kg) is given as “the higher the dose of ethanolamine, the lower the amount of hydroxyproline”. Moreover, in the series with liver necrosis, the “area of necrosis in histopathological profile of the liver” value is on record as “a tendency that the area of necrosis was reduced”.
In the case of HGF: hepatocyte growth factor (HGF), the mitogenic activity entry in [4] is “potent mitogen”. In addition, the motogen function entry in series [4] (motion of cells) was “function as a motogen to stimulate motion of cells”. Moreover, in the series on cancer cells, the “proliferation of cancer cells” value is reported as “action to suppress proliferation of cancer cells”.
